Patent publication US5643870A, “O-acylated cyclosporins” (Sandoz Ltd., priority 1992, dated 1997)
≈ marks a conversion by molar mass, not a printed value.

Tests used:
[1] = system: lymphocytes from the spleen of Balb/c mice incubated with lymphocytes from the spleen of CBA mice
Procedure: 0.5×10^6 lymphocytes from the spleen of female (8-10 weeks) Balb/c mice are incubated for 5 days in 0.2 ml cell growth medium with ca. 0.5×10^6 lymphocytes from the spleen of female (8-10 weeks) CBA mice. Test substance is added to the medium at various concentrations. Activity is assessed by ability to suppress proliferation associated DNA synthesis as determined by incorporation of radiolabelled thymidine.

[2] = system: plaque forming, i.e. antibody producing, cells (lymphocytes from the spleen of OFI mice co-cultured with sheep erythrocytes); assay type: cell-based; conditions: 3 days co-culture with sheep erythrocytes
Procedure: Ca. 10^7 lymphocytes from the spleen of OFI, female mice are co-cultured with ca. 3×10^7 sheep erythrocytes for 3 days. Test substance is added to the incubation medium in varying concentrations. Lymphocytes are harvested and plated onto agar with fresh sheep erythrocytes as antigen. Sensitised lymphocytes secrete antibody that coats the erythrocytes, which lyse to form a plaque in the presence of complement. Activity is assessed by reduction in the number of plaque forming, i.e. antibody producing, cells. Cyclosporins in accordance with the present invention reduce the numbers of plaque forming cells at concentrations of the order of from 0.03 to 0.05 μg/ml.

SMILES: CC[C@@H]1NC(=O)[C@H]([C@H](O)[C@H](C)C/C=C/COC(=O)OC)N(C)C(=O)[C@H](C(C)C)N(C)C(=O)[C@H](CC(C)C)N(C)C(=O)[C@H](CC(C)C)N(C)C(=O)[C@@H](C)NC(=O)[C@H](C)NC(=O)[C@H](CC(C)C)N(C)C(=O)[C@H](C(C)C)NC(=O)[C@H](CC(C)C)N(C)C(=O)CN(C)C1=O [Example 1, [(8'-Methoxycarbonyloxy)MeBmt]^1 -Ciclosporin]
- IC50, test 1.1 murine mixed lymphocyte reaction (thymidine incorporation) [1]: 0.015 µg/mL (≈ 0.0117 µM)
- IC50, test 1.2 Mishell-Dutton test (number of plaque forming cells) [2]: 0.043 µg/mL
